This is an account of results in the METLIN SMRT retention time set (Domingo-Almenara et al. 2019).

The series in a line: gradient 5% acetonitrile 3 min, to 50% in 2 min, to 85% in 15 min, held 3 min, 100 µL/min. Particulars: column: Zorbax Extend-C18 2.1 x 50 mm; eluents: water / acetonitrile, 0.1% formic acid. Summed up:
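Retention time was recorded from adduct peaks, which were picked computationally and each inspected manually. Pure standards ran in mixtures of ~100 molecules on HPLC coupled to a quadrupole time-of-flight mass spectrometer, in positive and negative ionization mode, through a Zorbax Extend-C18 column (2.1 × 50 mm, 1.8 μm) at 100 μL/min. Eluents were water and acetonitrile, each with 0.1% formic acid.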
`O=C(COc1ccccc1F)Nc1cc(C(F)(F)F)ccc1Cl` gave an RP-LC retention time of 1150 s. To `COc1ccccc1CNC(=O)C1CCCN(c2nnc3cccc(C)n23)C1` (stereo not given) belongs 688 s; to `Cn1nc(CN(C(=O)c2ccc(F)cc2)c2ccccc2)c2c1CCN(S(C)(=O)=O)C2`, 721 s. Turning to `O=C(Nc1ccc(Cl)cc1)c1cccnc1-n1cc(-c2ccncc2)cn1`, the RP-LC retention time is 653 s. Consider `Cc1ccc(NC(=O)N2CCC3(CC2)NC(=O)c2ccccc2O3)c(C)c1`, for which the RP-LC retention time stood at 750 s.

Compound `COC(=O)c1c(NCCCN2CCCC2)c2cccc(Cl)c2[nH]c1=O` had an RP-LC retention time of 550 s.

`COc1ccc(Cc2nc3nccc(-c4ccsc4)n3n2)cc1` yielded an RP-LC retention time of 897 s. With `Cc1noc(-c2nc(-c3ccncc3)no2)n1` the figure was 703 s; with `Cc1nn2c(N3CCN(c4ccccn4)CC3)c3c(nc2c1-c1ccccc1)CCC3`, 720 s; with `CC1(C(=O)NCc2ccc(F)c(Cl)c2)Oc2cccnc2NC1=O` (stereo not given), 730 s. In the case of `CCCn1ccc2sc(C)c(C(=O)N3CCN(C(C)C)CC3)c2c1=O`, the RP-LC retention time came out at 587 s. On to `Cc1cccc(S(=O)(=O)Nc2cccc(-c3cn4ccccc4n3)c2)c1`, for which the RP-LC retention time is 644 s.

With `CCc1ccc(S(=O)(=O)N2CCC(C(=O)NCc3csc(-c4cccs4)n3)CC2)cc1`, the RP-LC retention time came out at 987 s. With `Cc1cc2nn(CC(=O)N(C)C3CCCCC3)c(=O)n2c(Nc2ccccc2C)n1` the figure was 1110 s; with `Cc1cc(C)cc(C(=O)N2CCN(S(=O)(=O)c3cc4c5c(c3)CCC(=O)N5CCC4)CC2)c1`, 815 s. Turning to `CCOC(=O)c1cc(S(=O)(=O)N2CCCC2C(=O)NC2CCC(C)CC2)cn1C` (stereo not given), the RP-LC retention time stood at 966 s. `CCC(C)NC(=O)N1CCc2c(c(-c3nc(-c4cccc(F)c4)no3)nn2C)C1` (stereo not given) registered an RP-LC retention time of 904 s. With `Cn1c(=O)c2cc(C(=O)Nc3ccc4c(c3)OCO4)cnc2n(-c2ccc(F)cc2)c1=O` the figure was 850 s; with `CCc1nc(OCC(=O)NCc2ccccc2Cl)c2c(C)c(C)oc2n1`, 1020 s; with `Cc1ccc(Cl)cc1NC(=O)C1CC(=O)N(c2ccc3c(c2)CCN3C(=O)C2CC2)C1` (stereo not given), 821 s. To `Cc1ccccc1Cn1ccnc1C(N)=O` belongs 695 s; to `O=C(Nc1cccc(Cl)c1)Nc1cnn(-c2ncncc2N2CCOCC2)c1`, 735 s; to `CCn1nc(C)c(CCNC(=O)c2ccc3c(c2)NC(=O)C2CCCCN32)c1C` (stereo not given), 636 s. Consider `O=C(CCn1cnc2cc(-c3noc(-c4cccc(F)c4)n3)ccc21)N1CCCC1`, for which the RP-LC retention time was found to be 765 s. To `Cc1nnc(CNC(=O)c2cc(-c3ccc(F)cc3)c[nH]2)o1` belongs 649 s; to `Cc1ccc(-c2ncc(C(=O)NCc3ccccc3C)c(-c3ccncc3)n2)cc1`, 909 s. To `O=C(CN1C(=O)C(C(=O)N2CCCCC2)Sc2ccccc21)N1CCN(c2ccccc2)CC1` (stereo not given) belongs 907 s; to `CC1(C(=O)NCc2ccccc2)CCN(S(=O)(=O)c2ccccc2C(F)(F)F)CC1`, 970 s. With `Cc1cnc(-c2ccccc2)n1CCNS(=O)(=O)Cc1ccccc1F` the figure was 651 s. Compound `COc1cccc(N2CCN(C(=O)c3cc4sccc4n3C)CC2)c1` gave an RP-LC retention time of 988 s. As for `CCN(CC)c1cc(C)nc2nc(CN3CCN(c4ccc(OC)cc4)CC3)nn12`, the RP-LC retention time worked out at 571 s. `CCN1CCn2cc(C(=O)N3CCN(c4ccccc4Cl)CC3)nc2C1` displayed an RP-LC retention time of 622 s. To `c1csc(-c2nc(-c3ccc4c(c3)ncn4CCN3CCCCC3)no2)c1` belongs 626 s; to `Cc1ccc(-c2nnc(-c3ccc(Cl)c(S(=O)(=O)N4CCOCC4)c3)o2)cc1`, 1030 s; to `COCCN1C(=O)c2cc(-c3ccc(OC)c(OC)c3)nn2CC1(C)C(=O)NC1CCCCC1` (stereo not given), 824 s. For the compound `CC(N)Cc1c[nH]c2ccc(OCc3cccs3)cc12` (stereo not given), the RP-LC retention time was 734 s. To `Cc1cc2c(cc1S(=O)(=O)N1CCCC1C(=O)NC1CCCCCC1)OC(C)C(=O)N2` (stereo not given) belongs 834 s. With `O=C(NCCn1cnc2cc(C(=O)N3CCCC3)ccc21)Nc1ccc(Br)cc1F` the figure was 639 s; with `O=C(Nc1ccc(Cl)cc1)c1cccn1Cc1noc(C2CC2)n1`, 1000 s; with `Cc1nc(-c2cc3cccc(C)c3nc2NCCc2ccccn2)no1`, 764 s. `COc1cc(-c2nc3nc(C)cc(C)n3c2Nc2ccc(Cl)cc2)ccc1O` displayed an RP-LC retention time of 656 s. With `Cc1cccc(CNc2cc(-n3ccnc3)ncn2)c1` the figure was 656 s. Compound `OC(CN1CCN(c2cccc(Cl)c2)CC1)C(c1ccccc1)c1ccccc1` (stereo not given) registered an RP-LC retention time of 885 s. With `O=C(NCCc1cccs1)C1CN(S(=O)(=O)C2CC2)CC12CCCCC2` (stereo not given) the figure was 934 s; with `CN(C)S(=O)(=O)N(CC(=O)Nc1cc(C(F)(F)F)ccc1Cl)c1ccccc1`, 1090 s. To `O=C(Cn1c(=O)c2cccn2c2ccc(F)cc21)NCc1ccco1` belongs 767 s. To `COC(=O)C1=CN(c2cc(F)ccc2C)c2ccc(F)cc2S1(=O)=O` belongs 898 s. `COc1ccc(C(C)NC(=O)c2c(C)sc3ccn(C)c(=O)c23)cc1` (stereo not given) yielded an RP-LC retention time of 735 s. In the case of `Cc1nn(-c2ccccc2)c(C)c1CCc1nn2c(-c3cccc(F)c3)nnc2s1`, the RP-LC retention time was determined as 934 s. In the case of `CS(=O)(=O)N1CCC(C(=O)NCc2ccccc2)Oc2ccccc21` (stereo not given), the RP-LC retention time turned out to be 807 s. `COC(=O)c1ccccc1NC(=O)Cn1nc2nc(N3CCCC(C)C3)ccn2c1=O` (stereo not given): the RP-LC retention time was 863 s. With `O=C(Nc1ccc2c(c1)OCCO2)C1CCN(C(=O)C2Sc3ccccc3NC2=O)CC1` (stereo not given) the figure was 730 s; with `COC(=O)c1c(NCc2ccc3c(c2)OCO3)c2ccc(F)cc2[nH]c1=O`, 734 s; with `Cc1cn(-c2ccc(SCC(=O)NCc3ccc4c(c3)OCO4)nn2)cn1`, 558 s. To `Cc1ccc(-n2cc(C(=O)N3CCC(C(N)=O)CC3)nn2)cc1` belongs 641 s; to `O=C(NC1CCN(c2cc(-c3ccccc3)[nH]n2)C1)c1cc2ccccc2[nH]1` (stereo not given), 739 s; to `CCc1ccccc1NC(=O)N(C)CCc1noc(COc2ccccc2F)n1`, 907 s.

For `CCN1C(=O)Cc2cc(C(=O)NCc3ccccc3)ccc21`, the RP-LC retention time worked out at 706 s. With `Cc1ccc(-n2nc(N3CCN(C(=O)c4ccc(Br)o4)CC3)ccc2=O)cc1` the figure was 817 s. With `CCN1CCN(c2ccc(-c3ccc(OC)c(S(=O)(=O)N4CCCC4)c3)nn2)CC1` the figure was 606 s; with `CCCc1ccc(S(=O)(=O)N2CCC(n3cnnc3C)CC2)cc1`, 767 s.

With `CCOC(=O)c1c(C)oc2ncnc(NCCN3CCCc4ccccc43)c12`, the RP-LC retention time came out at 1350 s. Take `Cc1ccc(-c2cn3nc(N4CCCC(C(=O)N5CCOCC5)C4)sc3n2)cc1` (stereo not given): the RP-LC retention time worked out at 800 s. Compound `COc1ccc(C2(C(N)=O)CC2)cc1` registered an RP-LC retention time of 682 s. With `Cc1ccc(-c2nocc2CCC(=O)NC(C)c2ccc(F)cc2)cc1` (stereo not given) the figure was 953 s. In turn, `O=C(c1ccc(-c2ccsc2)nc1)N1CCN(C2CCCCC2)CC1` yielded an RP-LC retention time of 625 s. The compound `Cc1cc(C)c(C)c(S(=O)(=O)NCC2(c3cccs3)CCOCC2)c1C` returned an RP-LC retention time of 1050 s. `COCC1(O)CCOC2(CCN(Cc3ccc(C)c(C)c3)CC2)C1` (stereo not given) came in with an RP-LC retention time of 627 s.

Consider `Cc1ccc(-n2nc(C)c3c(=O)n(CC(=O)N4CCN(c5cc(Cl)ccc5C)CC4)ccc32)cc1`, for which the RP-LC retention time turned out to be 1100 s. In turn, `O=C(CCc1cc(Cl)no1)NCCc1noc(C2CC2)n1` gave an RP-LC retention time of 693 s. `Cc1cc(-c2nnc(-c3ccco3)o2)c(C)n1CC(=O)NCc1ccccc1` yielded an RP-LC retention time of 826 s.

As for `Cc1c(Cl)cccc1NC(=O)CCc1ccc2nc[nH]c2c1`, the RP-LC retention time stood at 614 s. With `O=C(Cc1nnc2cc(-c3nc(C4CC4)no3)ccn12)NC1CCCCC1` the figure was 737 s; with `O=C(Cn1ccc2c(SCc3ccc(F)cc3)nccc21)N1CCN(c2ccccn2)CC1`, 595 s; with `CC1CCCN(CCCNC(=O)CCCn2c(=O)c3cccn3c3ccc(Br)cc32)C1` (stereo not given), 677 s.

On to `CC1CCC2(CC1)N=C(N1CCN(c3ncccn3)CC1)NC(=O)C2C#N` (stereo not given), for which the RP-LC retention time is 649 s.

As for `CCN(CC)CCOCCOC(=O)C1(c2ccccc2)CCCC1`, the RP-LC retention time came to 810 s.

`COc1ccc(-c2ncc3c(n2)CCN(C(=O)Nc2ccc(F)c(Cl)c2)C3)cc1` yielded an RP-LC retention time of 1020 s. With `CCc1noc(NC(C)=O)c1-c1ccc(C)c(S(=O)(=O)N2CCN(c3ccc(OC)cc3)CC2)c1` the figure was 919 s; with `CCOC(=O)C1CCN([C@H]2CS(=O)(=O)C[C@@H]2S(=O)(=O)c2ccccc2)CC1`, 826 s.
